Test results from patent EP3339292A1, “COCRYSTALS OF APREMILAST” (Zaklady Farmaceutyczne Polpharma SA, priority 2016, dated 2018).

Legend:
Type in all cases: physicochemical
Solubility of cocrystal = settings: RT
[1] = Dissolution studies (Ph. Eur. paddle method, tablets, HPLC analysis); settings: buffer pH 6.8 + 0.3% SLS, result in words
Method: Dissolution studies were performed using a Hanson SR8PLUS dissolution apparatus, according to European Pharmacopoeia apparatus, paddle method. The samples were tested in 900mL pH 6.8 with 0.3% SLS at 37.0°C +/- 0.5°C and the paddle rotation speed was set at 75 rpm. Dissolution study was conducted for 60min and samples were analyzed using HPLC method.
• Injection Volume: 0.5, 0.2 µl; • Run Time: 15.0 minutes; • Column: Symmetry C18; 250x4,6mm; 5µm, Vial: 1:A,1, 1:c,7, 1:c,8; • Mobile phase: gradient: acetonitrile : buffer (1 vol. TEA and 150 vol. 2,7g/l KH2PO4, pH2,0 adjust with H3PO4); • Column temp: 25°C; and • Flow: 1 ml/min.

[2] = Moisture sorption analysis (Dynamic Vapour Sorption, DVS); settings: result in words
Method: Water Vapour Sorption isotherms were obtained using a Dynamic Vapour Sorption apparatus (model: DVS - Advantage, supplier: Surface Measurement Systems Limited). The DVS apparatus consists of an ultra-microbalance housed inside a temperature-controlled cabinet. The sample was placed into a DVS sample pan under a stream of nitrogen (200 sccm) at 25°C. The humidity was increased ramping in 10% RH (relative humidity) steps from close to 0% RH to 90% RH (sorption phase). Next the humidity was decreased in a similar fashion for the desorption phase. The sample was held at each RH step for mass stabilization (dm/dt 0.02 %/min) but not less than 10 minutes. Two cycles of sorption and desorption were investigated.

Row | Solubility (Solubility of cocrystal) | dissolution profile compared to prior art Form B of Apremilast ([1]; listed as cocrystal of Apremilast with 4-hydroxybenzoic acid) | dissolution profile compared to prior art Form B of Apremilast ([1]; listed as cocrystals of Apremilast with 4-hydroxybenzoic acid) | hygroscopicity [2] | dissolution profile compared to prior art Form B of Apremilast [1] | SMILES
1 | Solubility: 42.5µg/ml (RT) | higher dissolution rate | superior dissolution profile | slightly hygroscopic |  | CCOc1cc([C@@H](CS(C)(=O)=O)N2C(=O)c3cccc(NC(C)=O)c3C2=O)ccc1OC.O=C(O)c1ccc(O)cc1 [APM-4HB, Cocrystal of N-[2-[(1S)-1-(3-ethoxy-4-methoxyphenyl)-2-(methylsulfonyl)ethyl]-1,3-dioxo-2,3-dihydro-1H-isoindol-4-yl]acetamide and 4-hydroxybenzoic acid]
2 |  |  |  | slightly hygroscopic | higher dissolution rate | CCOc1cc([C@@H](CS(C)(=O)=O)N2C(=O)c3cccc(NC(C)=O)c3C2=O)ccc1OC.Cn1c(=O)c2c(ncn2C)n(C)c1=O [APM-CAF, Cocrystal of N-[2-[(1 S)-1-(3-ethoxy-4-methoxyphenyl)-2-(methylsulfonyl)ethyl]-1,3-dioxo-2,3-dihydro-1H-isoindol-4-yl]acetamide and 1,3,7-trimethylpurine-2,6-dione (caffeine)]
